Laboratory results as given in ChEMBL document CHEMBL5726109, “Histone deacetylase inhibitors and compositions and methods of use thereof” (2017).
pIC50: −log10 of the molar value.

Target: Histone deacetylase 4 (Homo sapiens, UniProt P56524)
Experiment: Inhibition Assay: 2 μl (200×) of each diluted solution and each control (full activity: 100% DMSO alone or full inhibition 1 mM) is stamped into V-bottomed polypropylene 384-well compound plates using either the Bravo (384-well head from Agilent) or 12.5 μl 16-channel Matrix multi-channel pipette (Matrix Technologies Ltd).

Sequence of Histone deacetylase 4 (P56524 whole entry): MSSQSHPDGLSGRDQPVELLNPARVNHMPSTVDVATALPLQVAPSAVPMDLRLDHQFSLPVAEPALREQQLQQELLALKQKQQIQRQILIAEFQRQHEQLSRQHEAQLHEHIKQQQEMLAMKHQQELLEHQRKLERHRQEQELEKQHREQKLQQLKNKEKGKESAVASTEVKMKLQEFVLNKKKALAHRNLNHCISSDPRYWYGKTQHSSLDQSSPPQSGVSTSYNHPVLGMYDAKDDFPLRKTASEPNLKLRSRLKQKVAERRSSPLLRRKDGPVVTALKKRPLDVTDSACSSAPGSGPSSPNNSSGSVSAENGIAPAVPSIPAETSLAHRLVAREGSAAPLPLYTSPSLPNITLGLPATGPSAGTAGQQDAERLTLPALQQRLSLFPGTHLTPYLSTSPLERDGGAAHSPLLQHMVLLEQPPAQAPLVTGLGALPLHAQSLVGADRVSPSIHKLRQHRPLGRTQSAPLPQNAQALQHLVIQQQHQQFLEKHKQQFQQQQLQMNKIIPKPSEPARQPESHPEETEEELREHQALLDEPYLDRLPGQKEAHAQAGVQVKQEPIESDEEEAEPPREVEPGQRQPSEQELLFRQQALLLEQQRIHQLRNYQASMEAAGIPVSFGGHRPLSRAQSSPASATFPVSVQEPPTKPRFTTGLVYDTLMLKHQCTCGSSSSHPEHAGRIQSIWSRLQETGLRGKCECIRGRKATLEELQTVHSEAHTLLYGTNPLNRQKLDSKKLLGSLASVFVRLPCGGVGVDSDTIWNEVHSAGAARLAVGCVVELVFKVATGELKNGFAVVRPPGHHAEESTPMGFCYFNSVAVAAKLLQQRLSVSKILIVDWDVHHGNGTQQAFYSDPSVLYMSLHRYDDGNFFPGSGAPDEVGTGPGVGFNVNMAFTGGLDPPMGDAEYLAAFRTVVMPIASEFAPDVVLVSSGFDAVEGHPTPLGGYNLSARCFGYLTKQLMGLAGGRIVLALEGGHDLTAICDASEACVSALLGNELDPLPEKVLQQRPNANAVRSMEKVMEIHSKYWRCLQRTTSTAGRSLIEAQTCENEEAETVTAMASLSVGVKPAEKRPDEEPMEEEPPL

Cc1c(F)cccc1[C@@]1(C(=O)NO)C=C(c2cnccn2)CC1
pIC50: 5.62
